In patent EP1212309B1, “CASPASE INHIBITOR” (LG Chem Investment, Ltd., priority 1999, dated 2001):

Columns and labels:
WI38 cells = experiment: Protection from IFNγ and anti-Fas antibody-induced apoptosis (XTT); assay type: cell-based, human; conditions: 100% when Fas antibody was not treated; for viability ratio: WI38 cells
Protocol: WI38 cells (human embryonal lung fibroblast) were grown in a medium containing DMEM-10% FBS within 10cm diameter dishes until reaching at confluency. The cells were seeded into a 24-well plate at day 1 and incubated overnight while the volume of medium was maintained to 400µℓ. […] At day 3, each 100 µℓ of test compound was added to the cells after diluting the 10mM stock compound in DMSO to final concentrations of 50, 10, 2, and 0.4 µ M, respectively. The cells were incubated for 2 hrs in order for allowing the compound to enter into the cells and then treated with 40ng/well of anti-Fas antibody(apoptosis was induced 2 hrs after antibody was treated and the incubation was continued overnight). The control was not treated with Fas antibody. […] After coloring, 100-200µℓ of the supernatant was transferred to a 96-well plate and the absorbance at 490 nm was read with ELISA plate reader. For the blank, XTT solution was added to the well containing the medium only. Plotting was determined by comparing with the control group (100% when Fas antibody was not treated).

[1] = tested on: Con A-induced acute hapatitis mice; experiment: Con A-induced acute hepatitis in mice: plasma aminotransferase activity; assay type: in vivo, Balb/c mice
Protocol: Female 6-week-old Balb/c mice (Charles River Laboratory, Osaka, Japan) were kept at 22 °C and 55% relative humidity in a 12-h day/night rhythm with free access to food and water. Con A was dissolved in pyrogen-free saline to a concentration of 2.5 mg/ml and was injected via the tail vein in an amount of 20mg/kg based on Con A. The animals were i.p. injected twice with compound 33 dissolved into a vehicle which consists of olive oil and 10% DMSO, or a vehicle alone, at 1 hr before and 4h after Con A injection. Animals were sacrificed by cervical dislocation at 24 hrs after Con A injection to obtain liver and blood samples.
Blood samples obtained at step 1 were collected at 24h after Con A injection. Plasma AST and ALT activity were measured using Autokit (Youngdong Pharmaceutical Co., Seoul, Korea) following manufacturer's instruction.

[2] = tested on: hepatocytes in ConA-treated mouse liver; experiment: Con A-treated mouse liver: histologic examination and detection of apoptosis (H&E, TUNEL); assay type: in vivo; conditions: ConA-treated mice, compound 33 4, 20, 100mg/kg
Protocol: The present inventors estimated the prevalence of apoptotic cells in the mouse liver to certify the apoptosis-blocking effect of the compound of the present invention specifically in hepatocytes. Mice were treated ConA in the presence or absence of various dosages of compound 33 [A and G: ConA and vehicle treatment, B and H: ConA and compound 33 4mg/kg treatment, C and I: ConA and compound 33 20mg/kg treatment, D and J: ConA and compound 33 100mg/kg treatment] to prepare frozen liver sections. Also, mice were treated with PBS and vehicle (E and K), or PBS and compound 33 100mg/kg (F and L) to prepare frozen liver sections. Freshly excised mouse liver was immediately immersed in 25 % sucrose solution at 4 °C for overnight, then frozen in liquid nitrogen, and cryosectioned into 4 µm.
For histological examination, liver sections were fixed in 1% buffered paraformaldehyde and stained with hematoxilin & eosin (Fig. 6A to F). To detect apoptotic cells in liver, frozen liver was stained using an ApopTag in situ apoptosis peroxidase detection kit (terminal deoxynucleotidyl transferase-mediated dUTP nick end labeling: TUNEL assay) (Oncor, Gaithersburg, MD) and DAKO liquid DAB (DAKO, Carpinteria, CA)(Fig. 6G to L). Staining was conducted according to manufacturer's instruction. After completion of staining, the samples were observed under an optical microscope. […]

PARP cleavage = experiment: Con A-treated mouse liver: Western blotting of PARP cleavage; assay type: in vivo; conditions: liver lysate of Con A-treated mice, various doses, Western blot
Protocol: In this experiment, the cleavage of PARP was identified by the appearance on Western blot analysis of an 85 kDa-cleavage product in hepatic cell lysate obtained from mice treated with Con A and various doses of the compound of formula (I).
Freshly harvested livers treated with Con A or PBS together with various doses of compound 33 were rinsed in cold PBS and homogenized into three volumes per weight of cold PBS containing 1% Nonidet P-40, 0.1 % SDS, 1 mM PMSF, and protease inhibitor cocktail tablet Complete™ (Boehnger Mannheim, used according to manufacturer's instruction). The homogenates were incubated on ice for 30 min. Samples were then centrifuged at 16,000 x g for 30 min at 4°C. Supernatants were transferred to fresh tubes and centrifuged for additional 30 min. Harvested lysates were precleared by incubating with protein G-sepharose (Pharmacia, Uppsala, Sweden) at 4 °C for overnight, gently shaking. Supernatants were harvested by centrifugation at 1000 x g for 30 sec. at 4 °C and separated on 7 % SDS-polyacrylamide gel and transferred to nitrocellulose membrane. Blots were blocked for 1 hr at room temperature in PBS containing 5% skimmed milk and 0.1% Tween 20 under gentle shaking. Membranes were then incubated overnight with 1:1000 diluted monoclonal anti-PARP antibody (Pharmingen) under gentle shaking. […]

[3] = tested on: Recombinant human caspase; experiment: Inhibition of caspase activity in cell free system (chromogenic pNA substrates); assay type: biochemical; conditions: 100 µM compound, caspase-1, -2, -3, -4, -6, -7, -8 and -9, 200 µM chromogenic substrate, 37°C
Protocol: The pharmacological efficacy of the compound according to the present invention was evaluated by the following experiments. Con A was purchased from Boehringer Mannheim GmbH (Mannheim, Germany). Peptide-based substrates of caspases (Ac-YVAD-pNA for caspase-1, Ac-VDVAD for caspase-2, Ac-DEVD-pNA for caspase-3, 7, 8, and 9, Ac-LEVD-pNA for caspase-4, and Ac-VEID-pNA for caspase-6) and peptide-based caspase inhibitors (Ac-DEVD-fmk, z-VAD-CHO) were purchased from Alexis Co. (San Diego, CA). Ac-DEVD-CHO and z-DEVD-cmk were purchased from Bachem; Anti Fas antibody was purchased from Oncor (Cat#A8050); WI38 cell was available from ATCC; IFN-gamma was purchased from LG Pharmaceuticals (Korea). All cell culture-media and supplements were purchased from Gibco BRL (Tsuen Wan, Hong Kong) unless mentioned otherwise. […]
Caspase activity was tested by measuring proteolytic cleavage of peptide-based chromogenic substrate by each enzyme. […] Aliquots of the enzyme (2 µℓ containing catalytic activity of 0.2 absorbance at 405 nm/h) were mixed with 150 µℓ of 200 µM chromogenic substrate in the presence or absence of 100 µM compound 33 in 96-well plates. […] The absorbance of enzymatically released pNA was measured discontinuously at 405 nm in a microplate reader for I hr. The caspase activity was calculated from initial velocity (mean± SE)(n=4, in which n represents the number of repeated experiment).

## CC(C)[C@H](NC(=O)c1cccc2ccccc12)C1=NOC(Cc2ccccc2)(C(=O)N[C@@H](CC(=O)O)C(=O)COC(=O)c2c(Cl)cccc2Cl)C1 (stereo partly drawn) [Compound 33, (3S)-3-{3-[2-methyl-(1S)-1-(1-naphthalenecarbonylamino)-propyl]-5-phenylmethyl-4,5-dihydro-isoxazole-5-carbonylamino}-4-keto-5-(2,6-dichlorobenzoyloxy)-pentanoic acid]
WI38 cells; Homo sapiens, WI-38, WI38 cells, Conc. 0.4 µM, read-out: viability ratio
  viability at 0.4 µM: 15.5%
WI38 cells; Homo sapiens, WI-38, WI38 cells, Conc. 2 µM, read-out: viability ratio
  viability at 2 µM: 64.4%
WI38 cells; Homo sapiens, WI-38, WI38 cells, Conc. 10 µM, read-out: viability ratio
  viability at 10 µM: 92.7%
WI38 cells; Homo sapiens, WI-38, WI38 cells, Conc. 50 µM, read-out: viability ratio
  viability at 50 µM: 100%
WI38 cells; Conc. 50 µM, 50 µM
  viability ratio: 100%
WI38 cells; Conc. 50 µM, listed as Comp 33, 50 µM
  viability ratio: 100.21%
[1]; 4mg/kg compound 33, second experiment (AST p=0.2972, ALT p=0.1378)
  AST and ALT activity, difference to Con A/vehicle group: did not reached at statistically significant level
[1]; 20 mg/kg compound 33 (AST p=0.0174, ALT p=0.0011)
  AST and ALT activities compared with ConA/vehicle group: definitely reduced
[1]; compound alone without Con A, first experiment, not statistically significant (p=0.1033)
  AST activity by the compound itself (liver toxicity): slightly increased AST activity by itself
[1]; i.p. twice, 1 hr before and 4h after Con A 20mg/kg i.v., blood at 24h, across doses
  serum AST and ALT activity elevated by ConA: suppressed the elevated enzyme activities in a dose-dependent manner
[2]
  apoptotic lesions in liver: reduced dose-dependently
  cellular histology of liver: gradually recovered with increasing dose
PARP cleavage
  PARP cleavage (85 kDa-cleavage product) caused by Con A-induced apoptotic death of hepatic cells: gradually reduced as dose of compound 33 is increased
[3]
  inhibition of recombinant caspase activity: almost completely inhibited all tested caspase activity, only except for caspase 2
